Reference: patent publication US12102685B2, “Immodulator peptides covalently modified with small molecules” (priority 2020, dated 2024)
Marks after values point to notes of the source that are not given here. Peptide text beside a SMILES is read from it.

How the values were obtained:
rat scald model = assay: Rat scald model, nephrilin plus or minus metal (x5A); assay type: in vivo, Sprague Dawley rats; details: male rats, burn, 4 mg/kg sc once daily days 1-7
Method: Experiment x5A. Nephrilin peptide (IM3N1) is a designed inhibitor of Rictor complex (also known as mTORC2), an evolutionarily conserved assembly believed to modulate responses to cellular stress. […] This study explores the effect of nephrilin plus iron formulations on clinically relevant outcomes in the rat scald model. Animals were treated with nephrilin by subcutaneous bolus injection on days 1-7 post-burn. Equimolar ferric iron in the formulation improved the positive systemic effects of nephrilin on kidney function, glycemic control, oxidative stress, early hyperinflammation, late inflammasome activation, hyperangiogenesis and body mass, all variables previously shown to bear upon clinically relevant burn injury outcomes. The rat scald model and measurement of clinically relevant variables are disclosed in U.S. Pat. No. 10,369,191. Adult Sprague Dawley rats of both sexes (250-300 gm, Charles River Laboratories, Wilmington, MA, USA) were injected with nephrilin peptide plus or minus equimolar metal (zinc, ferrous iron or ferric iron) once daily by subcutaneous bolus injection, days 1-7; Treatment group sizes were (n=8) for each sex unless otherwise indicated: group S=sham-treated; group B=burn+vehicle; group N1=burn+4 mg/kg nephrilin; group N1/Zn2=burn+4 mg/kg nephrilin/zinc chloride; group N1/Fe2=burn+4 mg/kg nephrilin/ferrous sulphate; groups N1/Fe3 (2, 4 or 8)=burn+2, 4, or 8 mg/kg nephrilin/equimolar ferric chloride. The first dose was administered after completion of the scald procedure. Injection volume was 400 uL. Control animals received the same volume of vehicle.
To make global comparisons of treatment efficacy, we converted values to z-scores. All scores within an efficacy class were averaged, allowing allocation of equal weight to efficacy classes. A composite z-score (average z score across all 7 effect classes) is shown in the last row of the table. This allows direct comparison of efficacy across treatment groups. The sham treatment involves manipulating the animals exactly as in the burn group, but without the burn treatment. The efficacy value for the sham (0.82) is thus the positive control. The negative control is the Burn+vehicle group (−0.61). […] Compared to vehicle or nephrilin treatment alone (−0.31), nephrilin with ferric iron (0.27) is at least twice as efficacious overall. Male rats in the scald model were exposed to vehicle, 2, 4 and 8 mg/kg nephrilin complexed with ferric iron.

[1] = NTA-metal-affinity ELISA (Experiment x2A); assay type: binding
Method: The NTA-metal-affinity ELISA assay was performed using 96-well NTA-metal-coated plates readily available from commercial sources such as Qiagen (Germantown, MD). The NTA was charged with ferrous or ferric iron, zinc, copper, calcium, vanadium, ruthenium, cobalt, titanium, manganese or other metals. 400 ng of immodulator peptide IM3N1 in PBS buffer was added per plate. After incubation at room temperature for 60 minutes, excess peptide was washed off and peptide was detected by ELISA using an anti-immodulator rabbit primary antibody (A2501) and horseradish peroxidase conjugated to a secondary anti-rabbit antibody (arbitrary units)*vs EDTA control: • EDTA (no metal): 0.047±0.001 • Fe2+ (Ferrous): 0.844±0.026 (p<0.001*) • Fe3+ (Ferric): 0.848±0.011 (p<0.001*) • Zn2+ (Zinc): 0.194±0.089 (p<0.05*) • Cu2+ (Copper): 0.229±0.086 (p<0.05*)

STING = assay: THP1-Dual monocyte reporter, STING readout (x4A); assay type: cell-based
Method: (§1) Immune modulation functions of immodulator peptides were measured using the monocyte reporter cell line THP1-Dual (Invivogen, San Diego, CA), which provides convenient readouts for STING and NF-kappa-B pathways. Optionally, succinic acid, cytokine and chemokine production were also measured. THP1-Dual cell line was obtained from Invivogen. Cells were grown in a T-75 flask in RPMI Medium containing 20% fetal bovine serum, blasticidin ([…]), zeocin ([…]) and penicillin-streptomycin at 37° C. in a humidified, 5% CO2 incubator. Cells ([…], 8,000 cells/well) were plated in a 96-well plate and incubated overnight at 37 °C in a humidified, 5% CO2 incubator. Next day, […] of compounds were added (quadruplicate wells). After 24 hour incubation with the compound, supernatants were harvested and stored at 4° C. prior to assay.
Each cell supernatant was assayed in quadruplicate. 20 uL of supernatant was used to measure NF-kappa-B (NFkB) and
(§2) STING activity using reagents QuantiBlu and QuantiLuc respectively, according to the manufacturer's recommendations (Invivogen, San Diego, CA). Succinic acid was measured by using a kit from Megazyme Inc (Cambridge, MA). Control value of activity was set to 100 in each assay. […] PAM3C=25 ng/ml PAM3CSK4 (TLR1/2 inducer); Poly(I:C)=10 ug/ml (TLR3 inducer); PAM2C=25 ng/ml PAM2CSK4 (TLR2/6 inducer); KIN14=4 uM KIN-1400 (RIG-I inducer); cytB=1 uM cytosporone B (Nur77 inducer); C-178=1 uM STING inhibitor; NFkBi=50 ug/ml NFkB inhibitor peptide; SB2021=10 uM p38MAPK inhibitor; *p<0.05, **p<0.01 vs IM3 control; #p<0.01 vs “no inducer” control; SUCC=succinic acid; nd=not done; Peptide was added to cells at 400 nM.
(§3) Peptides were added to cells at 400 nM. […]

THP1-Dual monocytes = assay: Succinic acid in THP1-Dual supernatant (x4A); assay type: cell-based
Method: as §1, §2, §3

[2] = peptide 400 nM + KIN1400 (= 100)
[3] = peptide 400 nM + KIN1400 + C-178 1 uM
[4] = peptide 400 nM + KIN1400 + NFkBi 50 ug/ml
[5] = peptide 400 nM + KIN1400 + SB2021 10 uM
[6] = peptide 400 nM + KIN1400 + cytB 1 uM
[7] = peptide 400 nM + PAM2C + C-178 1 uM
[8] = peptide 400 nM + PAM2C + NFkBi 50 ug/ml
[9] = peptide 400 nM + PAM2C + SB2021 10 uM
[10] = peptide 400 nM + PAM2C + cytB 1 uM
[11] = peptide 400 nM + PAM3C + C-178 1 uM
[12] = peptide 400 nM + PAM3C + NFkBi 50 ug/ml
[13] = peptide 400 nM + PAM3C + SB2021 10 uM
[14] = peptide 400 nM + PAM3C + cytB 1 uM

Compound: RGVTEDYLRLETLVQKVVSKGFYKKKQCRPSKGRKRGFCW [IM3N1]
- 1: early inflammation (24-hr plasma IL-6) (rat scald model): 50.6 ± 6.1 pg/mL
- 2a: 14-day plasma inflammasome marker IL18 (rat scald model): 178.1 ± 19.3 pg/mL
- 2b: 14-day plasma inflammasome marker IL1b (rat scald model): 124.3 ± 132 pg/mL
- 3a: 14-day plasma hyperangiogenesis marker VEGF-A (rat scald model): 56.1 ± 11.7 pg/mL
- 3b: 14-day plasma hyperangiogenesis marker CCL5 (rat scald model): 609.7 ± 283 pg/mL
- 3c: 14-day plasma hyperangiogenesis marker CXCL5 (rat scald model): 1910 ± 380 pg/mL
- 4: glycemic control, 14-day GTT (AUC) (rat scald model): 139.3 ± 48.6 mg·dL·h
- 5: kidney function, 14-day plasma creatinine (rat scald model): 0.34 ± 0.13 mg/dL
- 6: systemic oxidative stress, 14-day plasma OHDG (rat scald model): 585 ± 137 pg/mL
- 7: weight loss (slope) (rat scald model): 2.32 ± 1.01
- 3d: hyperangiogenesis marker PctRedPix (rat scald model): 16.51 ± 3.02
- Avg: composite z-score (average z score across all 7 effect classes) (rat scald model; listed as N1, 4 mg/kg): −0.31 ± 0.35
- Avg: composite z-score (average z score across all 7 effect classes) (rat scald model; listed as nephrilin, 4 mg/kg): −0.31
- peptide bound, ELISA ([1]; Cu2+ (Copper)): 0.229±0.086 arbitrary units
- peptide bound, ELISA ([1]; EDTA (no metal), 400 ng peptide): 0.047±0.001 arbitrary units
- peptide bound, ELISA ([1]; Fe2+ (Ferrous)): 0.844±0.026 arbitrary units
- peptide bound, ELISA ([1]; Fe3+ (Ferric)): 0.848±0.011 arbitrary units
- peptide bound, ELISA ([1]; Zn2+ (Zinc)): 0.194±0.089 arbitrary units

Compound: N=C(N)NCCC[C@H](NC(=O)CNC(=O)[C@H](CCCCN)NC(=O)[C@H](CO)NC(=O)[C@@H]1CCCN1C(=O)[C@H](CCCNC(=N)N)NC(=O)[C@H](CS)NC(=O)[C@H](CCC(N)=O)NC(=O)[C@H](CCCCN)NC(=O)[C@H](CCCCN)NC(=O)[C@H](CCCCN)NC(=O)[C@H](Cc1ccc(O)cc1)NC(=O)[C@H](Cc1ccccc1)NC(=O)CNC(=O)[C@H](CCCCN)NC(=O)[C@@H](N)CCCCN)C(=O)N[C@@H](CCCCN)C(=O)N[C@@H](CCCNC(=N)N)C(=O)NCC(=O)N[C@@H](Cc1ccccc1)C(=O)N[C@@H](CS)C(=O)N[C@@H](Cc1c[nH]c2ccccc12)C(=O)O [IM3] (H-KKGFYKKKQCRPSKGRKRGFCW-OH; N-terminus and C-terminus assumed)
- STING (STING; [2]): 100
- STING (STING; [3]): 81.1**
- STING (STING; [4]): 105.0
- STING (STING; [5]): 75.6**
- STING (STING; [6]): 87.5*
- STING (STING; peptide 400 nM + PAM2C (= 100)): 100
- STING (STING; [7]): 62.0**
- STING (STING; [8]): 119.1*
- STING (STING; [9]): 18.9**
- STING (STING; [10]): 96.5
- STING (STING; [11]): 566**
- STING (STING; [12]): 1294**
- STING (STING; [13]): 274**
- STING (STING; [14]): 1318**
- STING (STING; peptide 400 nM + PAM3C, control = 100): 1474
- STING (STING; peptide 400 nM, no inducer, control = 100): 91**
- SUCC (THP1-Dual monocytes; [2]): 100
- SUCC (THP1-Dual monocytes; [3]): 103.2
- SUCC (THP1-Dual monocytes; [4]): 99.2
- SUCC (THP1-Dual monocytes; [5]): 131.6*
- SUCC (THP1-Dual monocytes; [6]): 96.1
- SUCC (THP1-Dual monocytes; peptide 400 nM + PAM2C (= 100)): 100
- SUCC (THP1-Dual monocytes; [7]): 96.1
- SUCC (THP1-Dual monocytes; [8]): 100.1
- SUCC (THP1-Dual monocytes; [9]): 93.4
- SUCC (THP1-Dual monocytes; [10]): 85.1*
- SUCC (THP1-Dual monocytes; peptide 400 nM + PAM3C): 100
- SUCC (THP1-Dual monocytes; [11]): 95.3
- SUCC (THP1-Dual monocytes; [12]): 101.5
- SUCC (THP1-Dual monocytes; [13]): 95.8
- SUCC (THP1-Dual monocytes; [14]): 95.4
